Laboratory results published in patent US11761966B2, “Nourin gene-based RNA molecular network: novel early diagnostic and prognostic biomarkers for coronary artery disease, unstable angina, STEMI/NSTEMI and heart failure” (Nour Heart, Inc., priority 2018, dated 2023).
Entries after “also recorded” stand apart in the source; their conditions may differ.

Experiments:
[1] = system: intact AMI dog model of LAD occlusion; experiment: Intact AMI dog model of LAD occlusion for 1 hour followed by reperfusion for 2 hours; format: in vivo; conditions: for myocardial cell injury (histology): vs control (saline) group
Method: During ischemia, myocardial ATP levels decrease by 65% at 15 minutes and by 90% at 40 minutes, thus contractile performance in vivo decreases precipitously and ceases when only 20% of ATP and 75% of creatine phosphate are depleted. […] ATP synthesis continued during ischemia and its depletion was delayed resulting in over 85% preservation of pre-ischemic ATP level with a loss of only 15%, and 97% preservation of the CrP (loss of 3%) during ischemia. This significant preservation is crucial since ATP depletion of more than 20% ceases contractility. Control saline-treated hearts maintained only 66% of the ATP, with a loss of 34%, resulting in loss of reperfusion cardiac contractility. […] On the other hand, contractile function of control saline dogs was ceased completely after LAD occlusion and never recovered during reperfusion.

[2] = system: intact canine model of cold cardioplegic arrest; experiment: Intact canine model of cold cardioplegic arrest and aortic cross-clamping (bypass); format: in vivo, dog
Method: Dogs were injected intravenously with saline or CCr (500 mg/kg) for 1 hour before initiating the experiment.
Atrial fibrillation (AF) induces cardiac structural remodeling and there is a need to develop more mechanism-directed AF therapies that use the mitochondria as a novel potential therapeutic target in AF.

[3] = system: non-heartbeating dog model of heart transplantation; experiment: Non-heartbeating dog model of heart transplantation (warm ischemic arrest, ex vivo perfusion); format: in vivo
Method: Dog hearts underwent 1 hour of global warm ischemic arrest then hearts were explanted and perfused ex vivo for an additional 4 hours with a cold lactated ringers solution containing Cyclocreatine, while control hearts received cold lactated ringers solution alone. […] Similarly, the myocardium of the CCr dog maintained a tissue pH of 7.04±0.1 during the warm ischemia period of 1 hour and throughout the ex vivo perfusion interval, which was close to its baseline level of 7.11. On the other hand, tissue pH in control hearts fell to a nadir of 6.00±0.25 during the induction of warm ischemia and never returned back to baseline levels during the ex vivo preservation period.

Yorkshire pigs = experiment: Aortic cross-clamping for 30 minutes in Yorkshire pigs (paraplegia); format: in vivo, pig; conditions: 30 minutes aortic cross-clamping, 4 days survival
From the text: The relationship between hypoxia and AD could open the avenue for effective preservation and pharmacological treatments of this neurodegenerative disease by using new therapeutic drugs like the novel bioenergetic drug, CCrP. CCrP provides protection of heart muscle against ischemic injury in CAD, UA, AMI, HF and cardiac surgical patients and thus save ischemic muscles from progressing to necrosis and heart failure, and will be protective against ischemic injury in stroke and AD. […] Since paraplegia following surgery of the descending thoracic aorta is a serious complication in adult and pediatric surgery, we tested the neuroprotective effect of Cyclocreatine in Yorkshire pigs which underwent 30 minutes of aortic cross-clamping then left to survive for 4 days. […] As indicated in Example 17, similar to heart tissue (Nourin-1), Nourin protein was quickly released within 5 minutes by brain (Nourin-2) and spinal cord (Nourin-3) in response to ischemia. Because of the great similarities between heart and brain and that they are both require high demand of ATP, CCrP will be as effective in preventing ischemic injury and restoring neurologic function in stroke and AD, similar to HF.

[4] = Crossing of the blood-brain barrier

Compound: NC1=NCCN1CC(=O)O [Cyclocreatine]
- preservation of pre-ischemic ATP level ([1]; CCr 60 minutes before LAD occlusion for 1 hour, saline 66%): over 85%
- loss of ATP ([1]; CCr 60 minutes before LAD occlusion, saline 34%): 15%
- neutrophil accumulation into the myocardium ([1]; at the end of 2 hours reperfusion): reduces neutrophil accumulation
- loss of CrP ([1]; during ischemia): 3%
- preservation of the CrP ([1]; during ischemia): 97%
- circulating Nourin protein in plasma ([1]; during the 2 hour reperfusion): inhibiting the levels of circulating Nourin protein
- contractile function restored ([1]; immediately at reperfusion and for an additional 2 hours): over 80%
- myocardial cell injury (histology) [1]: significantly reduced myocardial cell injury
- myocardial cell injury (histology) ([1]; listed as CCr): markedly less myocardial cell injury
- post-bypass cardiac output, of the baseline function ([2]; CCr 500 mg/kg IV, throughout 4 hours of reperfusion, control 60%): over 90%
- resumption of contractility during reperfusion ([2]; all control dogs required defibrillation, listed as CCr): without arrhythmias; also recorded: without the need for defibrillation
- myocardial tissue pH ([3]; 1 hour warm ischemia and ex vivo perfusion, baseline 7.11, control nadir 6.00±0.25): 7.04±0.1
- time to stop beating and develop asystole ([3]; after exsanguination, control average 2 minutes): 9 min
- intracellular edema (diffusion weighted MRI) ([3]; compared to control): Reduced intracellular edema
- myocardial tissue lactic acidosis (spectroscopic MRI) ([3]; compared to control): Reduced myocardial tissue lactic acidosis
- cell injury marker Malondialdehyde ([3]; compared to controls): Reduced level
- myocardial ATP content ([3]; compared to controls): Three-fold increase
- reduction of Caspase enzyme activities, of baseline ([3]; control dogs 3.86-fold increase over baseline): 25%
- ability to stand and walk (Yorkshire pigs): Majority of Cyclocreatine-treated animals were able to stand and walk
- crossing of the blood-brain barrier [4]: crosses the blood-brain barrier; also recorded: crosses the blood brain barrier
